Source: patent publication US9676715B2, “Bis-indolic derivatives, a process for preparing the same and their uses as a drug” (UNIVERSITE JOSEPH FOURIER, priority 2011, dated 2017)
In brackets after ≈: the same amount, converted by molar mass.

How the values were obtained:
[1] = tested on: S. aureus ATCC 106414 (VISA); assay: MIC, microdilution method (9.1); format: cell-based, Staphylococcus aureus; details: Staphylococcus aureus, read after 18 h, read-out: MIC
Procedure: (§1) The microdilution method recommended by the Clinical and Laboratory Standard Institute [M07-A8, Vol. 29, No. 2] was used. The activity of indolic compounds was tested against 29 bacterial strains belonging to 17 different species and 12 different genera (Staphylococcus, Streptococcus, Enterococcus, Listeria, Bacillus, Haemophilus, Escherichia, Klebsiella, Enterobacter, Serratia, Pseudomonas, and Acinetobacter). Bacterial inocula were prepared in Mueller Hinton broth (MH2, bioMérieux, Marcy L'Etoile, France), supplemented with 10% sheep blood for fastidious species (i.e., Streptococcus pneumoniae and Haemophilus influenzae). They were dispensed in 96 well microtiter plates (5×10^5 CFU/ml of final inoculum). Indolic compounds were added to the wells as to obtain two-fold serial concentrations (0.50-128 mg/L of final concentrations). Plates were incubated at 37° C. in ambient air, or at 37° C. in 5% CO2 enriched atmosphere for fastidious species. […] Drug-free cultures served as growth controls. Cultures receiving gentamicin, ciprofloxacin or cefotaxime served as positive controls.

S. aureus ATCC 25923 = assay: MIC, microdilution method (9.1); format: cell-based, Staphylococcus aureus; details: Staphylococcus aureus, ATCC25923, read after 18 h, read-out: MIC
Procedure: as §1

S. aureus ATCC 29213 = assay: MIC, microdilution method (9.1); format: cell-based, Staphylococcus aureus; details: Staphylococcus aureus, ATCC29213, read after 18 h, read-out: MIC
Procedure: as §1

[2] = tested on: S. aureus ATCC 33592 (MRSA); assay: MIC, microdilution method (9.1); format: cell-based, Staphylococcus aureus; details: Staphylococcus aureus, read after 18 h, read-out: MIC
Procedure: as §1

S. aureus ATCC 6538 = assay: MIC, microdilution method (9.1); format: cell-based, Staphylococcus aureus; details: Staphylococcus aureus, ATCC6538, read after 18 h, read-out: MIC
Procedure: as §1

S. aureus ATCC 9144 = assay: MIC, microdilution method (9.1); format: cell-based, Staphylococcus aureus; details: Staphylococcus aureus, ATCC9144, read after 18 h, read-out: MIC
Procedure: as §1

S. aureus CIP 103428 = assay: MIC, microdilution method (9.1); format: cell-based, Staphylococcus aureus; details: Staphylococcus aureus, CIP103428, read after 18 h, read-out: MIC
Procedure: as §1

[3] = tested on: S. aureus CIP 65.25 (MRSA); assay: MIC, microdilution method (9.1); format: cell-based, Staphylococcus aureus; details: Staphylococcus aureus, read after 18 h, read-out: MIC
Procedure: as §1

S. aureus CIP 65.6 = assay: MIC, microdilution method (9.1); format: cell-based, Staphylococcus aureus; details: Staphylococcus aureus, CIP65, read after 18 h, read-out: MIC
Procedure: as §1

[4] = tested on: S. epidermidis ATCC 12228; assay: MIC, microdilution method (9.1); format: cell-based, Staphylococcus epidermidis; details: Staphylococcus epidermidis, ATCC12228, read after 18 h, read-out: MIC
Procedure: as §1

[5] = tested on: S. epidermidis CIP 103627; assay: MIC, microdilution method (9.1); format: cell-based, Staphylococcus epidermidis; details: Staphylococcus epidermidis, CIP103627, read after 18 h, read-out: MIC
Procedure: as §1

S. epidermidis CIP 81.55 = assay: MIC, microdilution method (9.1); format: cell-based, Staphylococcus epidermidis; details: Staphylococcus epidermidis, CIP81, read after 18 h, read-out: MIC
Procedure: as §1

S. aureus SA-1199B = assay: MIC, microdilution method (9.1); format: cell-based, Staphylococcus aureus; details: Staphylococcus aureus, SA1199B, 18 h
Procedure: as §1

[6] = tested on: HCT116 (human colon tumor); assay: In vitro cytotoxicity; format: cell-based; details: read-out: % of cellular growth inhibition; for inhibition at 10 µM: HCT-116, 10^−5 M; for inhibition at 1 µM: HCT-116, 10^−6 M
Procedure: (§2) In vitro cytotoxicity was assayed on three cell lines—KB (human mouth carcinoma), MCR5 (human lung fibroblast) and HCT116 (human colon tumor). Results are presented in table IV as % of cellular growth inhibition in presence of 10^−5 M and 10^−6 M of the tested bis-indolic derivatives.

[7] = tested on: KB (human mouth carcinoma); assay: In vitro cytotoxicity; format: cell-based; details: read-out: % of cellular growth inhibition; for inhibition at 10 µM: 10^−5 M; for inhibition at 1 µM: 10^−6 M
Procedure: as §2

[8] = tested on: MRC5 (human lung fibroblast); assay: In vitro cytotoxicity; format: cell-based; details: read-out: % of cellular growth inhibition; for inhibition at 10 µM: 10^−5 M; for inhibition at 1 µM: 10^−6 M
Procedure: as §2

[9] = tested on: HCT116 (human colon tumor); assay: In vitro cytotoxicity; format: cell-based; details: HCT-116, HCT116, from 100 μM to 0.005 μM in DMSO, duplicate
S. pneumoniae ATCC 6303 = assay: MIC, microdilution method (9.1); format: cell-based, Streptococcus pneumoniae; details: Streptococcus pneumoniae, ATCC6303, 10% sheep blood, 5% CO2, 18 h, read-out: MIC
Procedure: as §1

[10] = tested on: S. agalactiae (group B) ATCC 12400; assay: MIC, microdilution method (9.1); format: cell-based, Streptococcus agalactiae; details: Streptococcus agalactiae, ATCC12400, 18 h, read-out: MIC
Procedure: as §1

[11] = tested on: S. pyogenes (group A) CIP 104226; assay: MIC, microdilution method (9.1); format: cell-based, Streptococcus pyogenes; details: Streptococcus pyogenes, CIP104226, 18 h, read-out: MIC
Procedure: as §1

S. mitis CIP 103335 = assay: MIC, microdilution method (9.1); format: cell-based, Streptococcus mitis; details: Streptococcus mitis, CIP103335, 18 h, read-out: MIC
Procedure: as §1

E. faecium CIP 54.32 = assay: MIC, microdilution method (9.1); format: cell-based, Enterococcus faecium; details: Enterococcus faecium, CIP54, 18 h, read-out: MIC
Procedure: as §1

E. faecalis ATCC 29212 = assay: MIC, microdilution method (9.1); format: cell-based, Enterococcus faecalis; details: Enterococcus faecalis, ATCC29212, 18 h, read-out: MIC
Procedure: as §1

[12] = tested on: Acinetobacter baumanii ATCC 19606; assay: MIC, microdilution method (9.1); format: cell-based; details: Acinetobacter baumannii, ATCC19606, 18 h, read-out: MIC
Procedure: as §1

[13] = tested on: Bacillus subtilis CIP 5262; assay: MIC, microdilution method (9.1); format: cell-based; details: CIP5262, 18 h, read-out: MIC
Procedure: as §1

[14] = tested on: Enterobacter cloacae ATCC13047; assay: MIC, microdilution method (9.1); format: cell-based; details: 18 h
Procedure: as §1

[15] = tested on: Escherichia coli ATCC 25922; assay: MIC, microdilution method (9.1); format: cell-based; details: ATCC25922, 18 h
Procedure: as §1

[16] = tested on: Haemophilus influenzae ATCC 49766; assay: MIC, microdilution method (9.1); format: cell-based; details: ATCC49766; Haemophilus influenzae ATCC 49766; 10% sheep blood, 5% CO2; 18 h; read-out: MIC
Procedure: as §1

[17] = tested on: Klebsiella pneumoniae API ATCC 35657; assay: MIC, microdilution method (9.1); format: cell-based; details: ATCC35657, 18 h, read-out: MIC
Procedure: as §1

[18] = tested on: Listeria innocua CIP 80.11; assay: MIC, microdilution method (9.1); format: cell-based; details: CIP80, 18 h, read-out: MIC
Procedure: as §1

[19] = tested on: Pseudomonas aeruginosa CIP 5933; assay: MIC, microdilution method (9.1); format: cell-based; details: CIP5933, 18 h, read-out: MIC
Procedure: as §1

S. pneumoniae ATCC 49619 = assay: MIC, microdilution method (9.1); format: cell-based; details: Streptococcus pneumoniae, ATCC49619, 10% sheep blood, 5% CO2, 18 h
Procedure: as §1

[20] = tested on: Serratia marcescens CIP 103551; assay: MIC, microdilution method (9.1); format: cell-based; details: CIP103551, 18 h
Procedure: as §1

Structure (SMILES)	MIC [1] [µg/mL]	MIC (S. aureus ATCC 25923) [µg/mL]	MIC (S. aureus ATCC 29213) [µg/mL]	MIC [2] [µg/mL]	MIC (S. aureus ATCC 6538) [µg/mL]	MIC (S. aureus ATCC 9144) [µg/mL]	MIC (S. aureus CIP 103428) [µg/mL]	MIC [3] [µg/mL]	MIC (S. aureus CIP 65.6) [µg/mL]	MIC [4] [µg/mL]	MIC [5] [µg/mL]	MIC (S. epidermidis CIP 81.55) [µg/mL]	MIC (S. aureus SA-1199B) [µg/mL]	inhibition at 10 µM [6] [%]	inhibition at 1 µM [6] [%]	inhibition at 10 µM [7] [%]	inhibition at 1 µM [7] [%]	inhibition at 10 µM [8] [%]	inhibition at 1 µM [8] [%]	further results
CC(NC(=O)c1c[nH]c2ccc(F)cc12)c1c[nH]c2ccc(Br)cc12 (centres unmarked) [Compound 5, N-(1-(5-bromo-1H-indol-3-yl)ethyl)-5-fluoro-1H-indole-3-carboxamide]	16 (≈ 40 µM)	16 (≈ 40 µM)	16 (≈ 40 µM)	16 (≈ 40 µM)	16 (≈ 40 µM)	16 (≈ 40 µM)	16 (≈ 40 µM)	16 (≈ 40 µM)	> 32	16 (≈ 40 µM)	16 (≈ 40 µM)	16 (≈ 40 µM)	–	–	–	–	–	–	–	–
CC(C)(C)OC(=O)NCC(NC(=O)c1c[nH]c2ccccc12)c1c[nH]c2ccc(Br)cc12 (centres unmarked) [Compound 3b, tert-Butyl (2-(5-bromo-1H-indol-3-yl)-2-(1H-indole-3-carboxamido)ethyl)carbamate]	8 (≈ 16.1 µM)	8 (≈ 16.1 µM)	8 (≈ 16.1 µM)	8 (≈ 16.1 µM)	8 (≈ 16.1 µM)	8 (≈ 16.1 µM)	8 (≈ 16.1 µM)	8 (≈ 16.1 µM)	8 (≈ 16.1 µM)	8 (≈ 16.1 µM)	8 (≈ 16.1 µM)	8 (≈ 16.1 µM)	8 (≈ 16.1 µM)	30 ± 2	0	41 ± 6	0	8 ± 5	7	IC50 ([9]; first value): 15 µM; IC50 ([9]; second value): 11.2 µM
O=C(NC(C(=O)NCCO)c1c[nH]c2ccc(Br)cc12)c1c[nH]c2ccc(Br)cc12 (centres unmarked) [Compound 14, 5-Bromo-N-(1-(5-bromo-1H-indol-3-yl)-2-((2-hydroxyethyl)amino)-2-oxoethyl)-1H-indole-3-carboxamide]	32 (≈ 59.9 µM)	32 (≈ 59.9 µM)	32 (≈ 59.9 µM)	32 (≈ 59.9 µM)	32 (≈ 59.9 µM)	32 (≈ 59.9 µM)	32 (≈ 59.9 µM)	32 (≈ 59.9 µM)	> 32	32 (≈ 59.9 µM)	32 (≈ 59.9 µM)	32 (≈ 59.9 µM)	–	–	–	–	–	–	–	MIC (S. pneumoniae ATCC 6303): 128 µg/mL (≈ 240 µM); MIC [10]: 64 µg/mL (≈ 120 µM); MIC [11]: 64 µg/mL (≈ 120 µM); MIC (S. mitis CIP 103335): > 128 µg/mL; MIC (E. faecium CIP 54.32): > 128 µg/mL; MIC (E. faecalis ATCC 29212): > 128 µg/mL; MIC [12]: > 32 µg/mL; MIC [13]: > 128 µg/mL; MIC [14]: > 32 µg/mL; MIC [15]: > 32 µg/mL; MIC [16]: > 128 µg/mL; MIC [17]: > 32 µg/mL; MIC [18]: > 128 µg/mL; MIC [19]: > 32 µg/mL; MIC (S. pneumoniae ATCC 49619): 64 µg/mL (≈ 120 µM); MIC [20]: > 32 µg/mL
CC(C)(C)OC(=O)NCC(NC(=O)c1c[nH]c2cc(Br)ccc12)c1c[nH]c2ccccc12 (centres unmarked) [Compound 3e, tert-Butyl (2-(1H-indol-3-yl)-2-(6-bromo-1H-indolyl-3-carboxamido)ethyl)carbamate]	8 (≈ 16.1 µM)	16 (≈ 32.2 µM)	8 (≈ 16.1 µM)	32 (≈ 64.3 µM)	8 (≈ 16.1 µM)	8 (≈ 16.1 µM)	8 (≈ 16.1 µM)	8 (≈ 16.1 µM)	16 (≈ 32.2 µM)	8 (≈ 16.1 µM)	128 (≈ 257 µM)	8 (≈ 16.1 µM)	8 (≈ 16.1 µM)	92 ± 1	2	99 ± 1	0	92 ± 6	0	–
